Reference: the supplement of paper PMC6045584
± gives the standard deviation of the averaged measurements.

How the values were obtained:
[1] = compound: Cn1nnc2c(C(N)=O)ncn2c1=O [TEMOZOLOMIDE]; test: surviving fraction relative to DMSO-only wells; higher = less growth inhibition; details: exposure time: 5 days
Summary of the method: (§1)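 Luminescence normalised to the median of DMSO-only wells defines surviving fraction, with viability read by CellTiter-Glo. Signal was recorded after 10 minutes at room temperature, once log-phase tumour cell lines seeded at 250–500 cells per well in 384-well plates had spent 24 hours settling and then five days under continuous exposure to inhibitors at 0.5, 1, 5, 10, 50, 100, 500 and 1000 nM.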

[2] = compound: CNC(=O)c1cc(Oc2ccc(NC(=O)Nc3ccc(Cl)c(C(F)(F)F)c3)cc2)ccn1 [SORAFENIB]; test: as above; details: exposure time: 5 days
Summary of the method: as §1

| Test System | surviving fraction ([1]; 0.5 nM) | surviving fraction ([1]; 1 nM) | surviving fraction ([1]; 5 nM) | surviving fraction ([1]; 10 nM) | surviving fraction ([1]; 50 nM) | surviving fraction ([1]; 100 nM) | surviving fraction ([1]; 500 nM) | surviving fraction ([1]; 1000 nM) | surviving fraction ([2]; 0.5 nM) | surviving fraction ([2]; 5 nM) | surviving fraction ([2]; 10 nM) | surviving fraction ([2]; 50 nM) | surviving fraction ([2]; 100 nM) | surviving fraction ([2]; 500 nM) | surviving fraction ([2]; 1000 nM) | surviving fraction ([2]; 1 nM) |
| --- | --- | --- | --- | --- | --- | --- | --- | --- | --- | --- | --- | --- | --- | --- | --- | --- |
| H23 LUNG | 0.987 ± 0.04 | 1.01 ± 0.031 | 1.01 ± 0.053 | 1.06 ± 0.044 | 0.997 ± 0.025 | 1.01 ± 0.022 | 0.966 ± 0.066 | 1.02 ± 0.051 | 1.01 ± 0.03 | 1.06 ± 0.061 | 1.06 ± 0.033 | 1.32 ± 0.095 | 1.33 ± 0.031 | 1.38 ± 0.11 | 1.27 ± 0.073 | – |
| HCC78 LUNG | 0.804 ± 0.046 | 0.791 ± 0.14 | 0.941 ± 0.062 | 1.02 ± 0.069 | 0.984 ± 0.11 | 0.916 ± 0.14 | 0.907 ± 0.058 | 0.785 ± 0.18 | 0.864 ± 0.17 | – | 0.877 ± 0.085 | 1.02 ± 0.053 | – | 0.509 ± 0.068 | 0.435 ± 0.098 | 0.826 ± 0.023 |
| HCC202 BREAST | 1.08 ± 0.35 | 1 ± 0.13 | 1.07 ± 0.32 | 0.9 ± 0.071 | 1.01 ± 0.17 | 1.29 ± 0.14 | 0.975 ± 0.035 | 1.254 ± 0.011 | 1.23 ± 0.35 | 1.11 ± 0.18 | 1.02 ± 0.031 | 0.987 ± 0.055 | – | 0.897 ± 0.13 | 0.685 ± 0.15 | – |
| HCC1395 BREAST | 1.03 ± 0.034 | 1.1 ± 0.081 | 1.1 ± 0.11 | 1.02 ± 0.078 | 1.04 ± 0.044 | 1.01 ± 0.14 | 0.922 ± 0.14 | 1.06 ± 0.03 | 1.11 ± 0.057 | 1.27 ± 0.049 | 1.16 ± 0.17 | 1.26 ± 0.034 | 1.24 ± 0.15 | 1.18 ± 0.21 | 1.12 ± 0.048 | – |
| HCC1806 BREAST | 1 ± 0.043 | 1.083 ± 0.0076 | 1.19 ± 0.052 | 1.07 ± 0.081 | 1.12 ± 0.086 | 1.09 ± 0.034 | 1.05 ± 0.16 | 1.12 ± 0.11 | 0.985 ± 0.032 | 1.03 ± 0.059 | 0.771 ± 0.66 | 1.14 ± 0.099 | 1.05 ± 0.14 | 1 ± 0.11 | 0.888 ± 0.081 | 0.78 ± 0.45 |
| HCC1954 BREAST | 1.11 ± 0.19 | 0.956 ± 0.25 | 1.198 ± 0.0064 | 1.2 ± 0.082 | 1.16 ± 0.12 | 0.989 ± 0.13 | 1.04 ± 0.24 | 0.976 ± 0.023 | 1.11 ± 0.15 | 1.02 ± 0.077 | 0.93 ± 0.27 | 1.22 ± 0.11 | 1.29 ± 0.039 | 1.3 ± 0.1 | 1.33 ± 0.14 | – |
| HCT15 LARGE INTESTINE | 1.014 ± 0.0029 | 1.029 ± 0.0053 | 0.999 ± 0.055 | 1.02 ± 0.053 | 1.02 ± 0.045 | 1.08 ± 0.05 | 1.04 ± 0.063 | 1.09 ± 0.062 | 0.955 ± 0.029 | 0.99 ± 0.026 | 0.982 ± 0.021 | 1.09 ± 0.052 | 1.09 ± 0.064 | – | 1.06 ± 0.035 | 0.989 ± 0.0099 |
| HELA CERVIX | 1.04 ± 0.058 | 1.08 ± 0.09 | 1.04 ± 0.019 | 1.12 ± 0.078 | 1.07 ± 0.02 | 1.16 ± 0.084 | 1.07 ± 0.031 | 1.16 ± 0.072 | 1.03 ± 0.022 | 0.986 ± 0.047 | 0.9492 ± 0.0068 | 1.1 ± 0.024 | 1.09 ± 0.062 | 1.07 ± 0.055 | – | 0.982 ± 0.024 |
| HOS BONE | 0.994 ± 0.018 | 1.038 ± 0.0071 | 1.028 ± 0.0056 | 1.05 ± 0.042 | 1.04 ± 0.012 | 1.04 ± 0.012 | 1.04 ± 0.016 | 1.058 ± 0.0076 | 1.03 ± 0.043 | 1.025 ± 0.0095 | 1.03 ± 0.018 | 1.09 ± 0.014 | – | – | – | 1.015 ± 0.0025 |
| HOSMNG BONE | 0.835 ± 0.15 | 0.927 ± 0.11 | 0.795 ± 0.051 | 0.89 ± 0.03 | 0.938 ± 0.12 | 0.936 ± 0.16 | 0.995 ± 0.12 | 0.957 ± 0.074 | 0.994 ± 0.086 | 0.943 ± 0.092 | 1 ± 0.14 | 1.06 ± 0.11 | 1.05 ± 0.16 | 1.1 ± 0.049 | 1.06 ± 0.15 | 0.975 ± 0.14 |
| HSSYII SYNOVIAL | 0.958 ± 0.033 | 0.957 ± 0.061 | 0.965 ± 0.039 | 0.998 ± 0.051 | 1.02 ± 0.024 | 0.9798 ± 0.0033 | 0.981 ± 0.035 | 0.956 ± 0.04 | 1 ± 0.059 | 0.977 ± 0.038 | 0.942 ± 0.035 | 0.947 ± 0.037 | 1.01 ± 0.024 | 0.855 ± 0.035 | 0.779 ± 0.038 | 0.975 ± 0.026 |
| HT1080 SOFT TISSUE | 1.04 ± 0.039 | 1.03 ± 0.014 | 1.03 ± 0.026 | 1.03 ± 0.022 | 1.03 ± 0.026 | 1.04 ± 0.014 | 1.04 ± 0.017 | 1.03 ± 0.023 | 1.04 ± 0.057 | 1.04 ± 0.035 | 1.02 ± 0.014 | 1.023 ± 0.005 | 1.01 ± 0.028 | 1.05 ± 0.09 | 1.01 ± 0.031 | 1.05 ± 0.036 |
| HU09 BONE | 0.817 ± 0.057 | 1.01 ± 0.042 | 1.08 ± 0.11 | 1.1 ± 0.014 | 0.964 ± 0.14 | 1.12 ± 0.051 | 0.966 ± 0.11 | 0.961 ± 0.076 | 0.95 ± 0.061 | 1.01 ± 0.099 | 0.95 ± 0.072 | 0.809 ± 0.061 | 0.675 ± 0.063 | 0.512 ± 0.016 | 0.433 ± 0.02 | 0.951 ± 0.089 |
| HUO3N1 BONE | 0.981 ± 0.025 | 0.988 ± 0.045 | 1.029 ± 0.0051 | 1.04 ± 0.042 | 1.01 ± 0.039 | 1.06 ± 0.032 | 0.9827 ± 0.0083 | 1.02 ± 0.03 | 1 ± 0.053 | – | 1 ± 0.036 | 1.004 ± 0.01 | 0.941 ± 0.04 | 0.818 ± 0.029 | 0.82 ± 0.017 | – |
| JIMT1 BREAST | 1 ± 0.022 | 1.03 ± 0.032 | 1.021 ± 0.0081 | 1.07 ± 0.07 | 1 ± 0.022 | 1.04 ± 0.038 | 1.01 ± 0.025 | 1.06 ± 0.065 | – | 1.02 ± 0.022 | 0.97 ± 0.014 | – | 1.05 ± 0.046 | – | 0.986 ± 0.071 | 0.986 ± 0.028 |
| JURKAT HAEMATOPOIETIC AND LYMPHOID TISSUE | 1.06 ± 0.019 | 1.08 ± 0.024 | 1.05 ± 0.032 | 1.05 ± 0.02 | 1.04 ± 0.029 | 1.01 ± 0.029 | 1.02 ± 0.02 | 1.04 ± 0.013 | 1.106 ± 0.0035 | 1.11 ± 0.039 | 1.11 ± 0.037 | 1.08 ± 0.023 | 1.06 ± 0.029 | – | 0.863 ± 0.012 | 1.1 ± 0.026 |
| KPD BONE | 0.925 ± 0.022 | 0.955 ± 0.091 | 1.11 ± 0.079 | 1.01 ± 0.024 | 1.06 ± 0.088 | 1.074 ± 0.0076 | 0.983 ± 0.1 | 0.977 ± 0.043 | 0.922 ± 0.019 | 1.03 ± 0.032 | – | 0.989 ± 0.075 | – | – | – | – |
